{
  "source": "paper PMC8287028",
  "about": "(Frontiers in Veterinary Science, 2021)",
  "key": {"[1]": {"system": "activated partial thromboplastin time", "test": "Activated partial thromboplastin time (aPTT) on citrated plasma of dosed dogs", "format": "in vivo, dog", "method": "Coagulation assays were performed on platelet-poor, citrated plasma samples by a reference laboratory (Comparative Coagulation Laboratory, Animal Health Diagnostic Center, Ithaca, NY). […] The assay is configured with a bovine activated Factor X reagent that is added in excess to the test plasma and a chromogenic substrate of Factor Xa (STA Liquid anti-Xa, Diagnostica Stago). Residual, uninhibited Factor Xa cleaves the chromogenic substrate such that the inverse of the color change in the reaction mixture is proportional to the drug concentration in the test plasma. […] Assay controls, consisting of human plasma spiked with apixaban (STA Apixaban Controls, Diagnostica Stago) were analyzed before each batch of test samples to confirm assay performance. The apixaban levels in calibrators and controls are defined by the manufacturer from an internal reference assayed by HPLC-MS. […] A mechanical endpoint method (STA Compact, Diagnostica Stago) and human coagulation reagents were used to measure prothrombin time (Thromboplastin LI, Helena Diagnostics, Beaumont, TX) and activated partial thromboplastin time (Dade Actin FS, Dade Behring, Newark, DE). […]"}, "[2]": {"test": "Pharmacokinetics after intravenous apixaban, plasma concentrations by LC/MS", "format": "in vivo, dog", "settings": "dogs; for Vd: read-out: Vd (volume of distribution); for AUC: read-out: AUC (area-under-the-curve); for C0: read-out: C0 (concentration at time zero); for clearance: read-out: CL (systemic clearance) (converted); for half-life: read-out: K10 T½ (elimination half-life) (converted); for MRT: read-out: MRT (mean residence time)", "method": "All injection durations were identical.\nCatheters were flushed with 0.9% saline, without heparin.\nAnalyses of plots and PK modeling were performed using compartmental methods in standard software (Phoenix, WinNonlin, Certara, St. Louis, MO). One-, 2- and 3-compartment models were fit to the plasma concentration data."}, "[3]": {"settings": "both sexes, mixed-breed, dog, plasma, iv, 0.18 mg/kg, IV, mean dose 0.18 mg/kg, geometric mean"}, "[4]": {"settings": "both sexes, mixed-breed, dog, plasma, iv, 0.18 mg/kg, IV, mean dose 0.18 mg/kg, mean of 6 dogs"}, "[5]": {"settings": "IV, mean dose 0.18 mg/kg, individual dogs (Dog 1-6), 0.18 mg/kg"}},
  "note": "Several values for one entry are separate records, joined by “and”; a condition that tells them apart may be missing. Identical values can stand only once. Entries after “also recorded” stand apart in the source; their conditions may differ. Like-named read-outs stand apart in the source and are kept apart here.",
  "data": [
    {"smiles": "COc1ccc(-n2nc(C(N)=O)c3c2C(=O)N(c2ccc(N4CCCCC4=O)cc2)CC3)cc1", "note": "[apixaban]", "values": [
      {"measurement": "aPTT versus baseline", "setting": "[1]; IV 0.18 mg/kg, at 5 and 15 min post-injection", "result": "significantly prolonged"},
      {"measurement": "aPTT versus baseline", "setting": "[1]; PO 0.2 mg/kg, 0.2 mg/kg", "result": "not consistently affected; also recorded: did not have a significant effect"},
      {"measurement": "Vd", "setting": "[2]; both sexes, mixed-breed, dog, in vivo, iv, 0.18 mg/kg, IV, mean dose 0.18 mg/kg, individual dogs (Dog 1-6)", "result": 0.163, "unit": "L/kg"},
      {"measurement": "AUC", "setting": "[2]; [3]", "result": 5620, "unit": "ng·h/mL"},
      {"measurement": "C0", "setting": "[2]; [3]", "result": 1000, "unit": "ng/mL"},
      {"measurement": "clearance", "setting": "[2]; [3]", "result": 0.52, "unit": "mL/min/kg"},
      {"measurement": "half-life", "setting": "[2]; [3]", "result": 3.9, "unit": "h"},
      {"measurement": "MRT", "setting": "[2]; [3]", "result": 5.6, "unit": "h"},
      {"measurement": "Vd", "setting": "[2]; [3]", "result": 0.175, "unit": "L/kg"},
      {"measurement": "C0", "setting": "[2]; both sexes, mixed-breed, dog, plasma, iv, 0.18 mg/kg, IV, mean dose 0.18 mg/kg, individual dogs (Dog 1-6)", "result": 1210, "unit": "ng/mL"},
      {"measurement": "AUC", "setting": "[2]; [4]", "result": 6030, "unit": "ng·h/mL"},
      {"measurement": "C0", "setting": "[2]; [4]", "result": 1010, "unit": "ng/mL"},
      {"measurement": "clearance", "setting": "[2]; [4]", "result": 0.563, "unit": "mL/min/kg"},
      {"measurement": "half-life", "setting": "[2]; [4]", "result": "~4.1", "unit": "h"},
      {"measurement": "MRT", "setting": "[2]; [4]", "result": 6, "unit": "h"},
      {"measurement": "Vd", "setting": "[2]; [4]", "result": 0.177, "unit": "L/kg"},
      {"measurement": "concentration at 24 h", "setting": "[2]; both sexes, mixed-breed, dog, plasma, IV 0.18 mg/kg, at 24 h, read-out: mean residual plasma concentration", "result": 17, "unit": "ng/mL"},
      {"measurement": "AUC", "setting": "[2]; both sexes, mixed-breed, in vivo, IV, mean dose 0.18 mg/kg, one-compartment model, individual dogs (Dog 1-6)", "result": 8140, "unit": "ng·h/mL"},
      {"measurement": "AUC (area-under-the-curve)", "setting": "[2]; IV, mean dose 0.18 mg/kg, one-compartment model, individual dogs (Dog 1-6), 0.18 mg/kg", "result": "5,726.9 h*ng/ml and 4,802.6 h*ng/ml and 7,639.4 h*ng/ml and 7,330.9 h*ng/ml and 2,516.3 h*ng/ml"},
      {"measurement": "K10 (first order elimination rate)", "setting": "[2]; IV, mean dose 0.18 mg/kg, geometric mean", "result": 0.2, "unit": "h⁻¹"},
      {"measurement": "C0 (concentration at time zero)", "setting": "[2]; [5]", "result": "853.9 ng/ml and 1,108.0 ng/ml and 958.3 ng/ml and 1,005.0 ng/ml and 913.4 ng/ml"},
      {"measurement": "CL (systemic clearance)", "setting": "[2]; [5]", "result": "0.573 mL/min/kg and 0.683 mL/min/kg and 0.39 mL/min/kg and 0.367 mL/min/kg and 0.348 mL/min/kg and 1.01 mL/min/kg"},
      {"measurement": "K10 (first order elimination rate)", "setting": "[2]; [5]", "result": "0.2 1/h (3×) and 0.1 1/h (2×) and 0.4 1/h"},
      {"measurement": "K10 T½ (elimination half-life)", "setting": "[2]; [5]", "result": "3.3 h and 4.8 h and 5.9 h and 5.1 h and 1.9 h"},
      {"measurement": "K10 (first order elimination rate)", "setting": "[2]; IV, mean dose 0.18 mg/kg, mean of 6 dogs", "result": 0.2, "unit": "h⁻¹"}
    ]}
  ]
}
